Source: patent US20250346571A1, “BICYCLIC DERIVATIVE PARP INHIBITOR AND USE THEREOF” (XIZANG HAISCO PHARMACEUTICAL CO., LTD., priority 2022, published 2025)
Read-outs that look alike come from different tables or passages of the source.

Assays:
[1] = system: MDA-MB-436 cells; experiment: MDA-MB-436 cell activity test (CellTiter-Glo, 7 days); assay type: cell-based; conditions: for IC50: 7 days incubation; for inhibition at 10 µM: read-out: Max inh. % 10 μM
Procedure: Breast tumor cells MDA-MB-436 were purchased from ATCC, the culture medium was Leibovitz's L-15+10% FBS, and the cells were cultured in a CO2-free incubator at 37° C. On day 1, the cells in the exponential growth phase were collected, and the cell suspension was adjusted to 4000 cells/135 μL with the culture medium. 135 μL of the cell suspension was added to each well of a 96-well cell culture plate and incubated overnight. On day 2, compounds at different concentrations were added, and the plate was placed in the incubator and incubated for 7 days. After the incubation was completed, according to operation instructions for a CellTiter-Glo kit (Promega, G7573), 75 μL of CTG solution, which was already pre-melted and equilibrated to room temperature, was added to each well, and the mixture was uniformly mixed for 2 min using a microplate shaker. The plate was placed at room temperature for 10 min, and then […] were measured using an Envision2104 plate reader (PerkinElmer). The inhibition rate was calculated using formula (1), where RLUcompound was the readout of the drug treated group, RLUcontrol was the average value of the vehicle control group, and RLUblank was the average value of the cell-free well. The IC50 value was calculated using GraphPad Prism software

[2] = target: PARP-1 enzyme (Homo sapiens (Human), UniProt P09874); experiment: PARP-1 enzyme activity test (chemical fluorescence detection kit, BPS Bioscience); assay type: biochemical
PARP-1 enzyme, sequence (P09874 whole entry): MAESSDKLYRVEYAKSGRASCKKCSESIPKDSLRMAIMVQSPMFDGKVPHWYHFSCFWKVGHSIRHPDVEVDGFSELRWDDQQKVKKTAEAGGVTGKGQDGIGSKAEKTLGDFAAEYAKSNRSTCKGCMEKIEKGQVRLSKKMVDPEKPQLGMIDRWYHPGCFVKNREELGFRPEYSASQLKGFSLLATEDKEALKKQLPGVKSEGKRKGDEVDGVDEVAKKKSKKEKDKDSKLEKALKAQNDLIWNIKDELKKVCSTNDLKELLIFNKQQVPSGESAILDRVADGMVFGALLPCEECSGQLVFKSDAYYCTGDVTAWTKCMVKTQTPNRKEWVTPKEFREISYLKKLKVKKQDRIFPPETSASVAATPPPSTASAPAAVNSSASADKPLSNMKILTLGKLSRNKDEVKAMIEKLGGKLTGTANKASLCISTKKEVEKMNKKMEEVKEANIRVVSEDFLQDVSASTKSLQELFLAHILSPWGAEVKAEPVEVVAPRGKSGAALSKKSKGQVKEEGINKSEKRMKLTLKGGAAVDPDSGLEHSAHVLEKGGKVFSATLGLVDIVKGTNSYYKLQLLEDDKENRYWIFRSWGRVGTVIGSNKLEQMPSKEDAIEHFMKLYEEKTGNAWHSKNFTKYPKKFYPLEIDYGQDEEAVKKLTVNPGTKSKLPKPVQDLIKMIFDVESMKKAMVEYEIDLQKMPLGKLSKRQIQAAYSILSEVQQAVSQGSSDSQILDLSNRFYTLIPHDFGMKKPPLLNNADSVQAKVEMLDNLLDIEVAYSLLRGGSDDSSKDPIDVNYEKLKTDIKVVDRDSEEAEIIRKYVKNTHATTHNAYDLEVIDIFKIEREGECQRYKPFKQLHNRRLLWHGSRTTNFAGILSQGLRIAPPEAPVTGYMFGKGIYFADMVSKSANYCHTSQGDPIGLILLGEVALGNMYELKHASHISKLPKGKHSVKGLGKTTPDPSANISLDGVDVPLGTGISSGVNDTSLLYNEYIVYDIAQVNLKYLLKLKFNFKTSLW
Procedure: PARP-1 chemical fluorescence detection kit was purchased from BPS Bioscience. The histone solution in the kit was diluted 5× with 1×PBS, and 25 μL of the diluted histone solution was added to a microwell plate and incubated overnight at 4° C. After the incubation, the plate was washed three times with PBST (0.05% Tween-20). 100 μL of the blocking solution was added to the microwell plate and incubated at 25° C. for 90 minutes. After the incubation was completed, the plate was washed three times with PBST. 2.5 μL of compounds at different concentrations diluted in test buffer and 12.5 μL of substrate mixed solution (1.25 μL 10×PARP test buffer; 1.25 μL 10×PARP test mixed solution; 2.5 μL Activated DNA, 7.5 μL double-distilled water) were added to the microwell plate. The PARP-1 enzyme was diluted to 2 ng/μL, […] was added to the microwell plate, and the reaction system was incubated at 25° C. for 60 minutes.
After the incubation was completed, the plate was washed three times with PBST. Streptavidin-HRP was diluted 50× with a blocking solution, and 25 μL of the diluent was added to the microwell plate and incubated at 25° C. for 30 minutes. After the incubation, the plate was washed three times with PBST. ELISA ECL substrate A and substrate B were uniformly mixed at a ratio of 1:1 (v/v), 50 μL of the mixture was added to the microwell plate, and the chemiluminescence value was read.
The inhibition rate was calculated according to formula 1, where RLUsample was the readout of the compound well, RLUmax was the readout of the solvent control well, and RLUmin was the readout of the control well without the PARP-1 enzyme. Curve fitting was performed by four parameters (log(inhibitor) vs. response—Variable slope) using GraphPad Prism software, and the ICso value was calculated.
Inhibition %=(1−(RLUsample−RLUmin)/(RLUmax−RLUmin))×100% (formula 1)

[3] = Pharmacokinetic test in mice; assay type: in vivo, Balb/c mice; conditions: for pharmacokinetic characteristics in mice: conclusion in words; for Kp at 24 h / AUC(0-t) / clearance / Vd / bioavailability: male, Balb/c, mouse, mice; for Kp at 24 h: brain/plasma, 24 h after administration, read-out: Brain/Plasma Ratio (24 h); for AUC(0-t) / clearance / Vd / bioavailability: plasma; for Vd: read-out: Vdss
Procedure: 4.1 Experimental animal: male Balb/c mice, 20-25 g, 12 mice/compound, purchased from Chengdu Ddossy Experimental Animals Co., Ltd.
4.2 Experimental design: on the day of the test, 60 Balb/c mice were randomly grouped according to their body weights. The animals were fasted with water available for 12 to 14 h one day before the administration and were fed 4 h after the administration.
(§1) Before and after the administration, 0.06 mL ofblood was taken from the orbit of the animals under isoflurane anesthesia and placed in an EDTAK2 centrifuge tube. The blood was centrifuged at 5000 rpm and 4° C. for 10 min to collect plasma. The blood collection time points for the intravenous administration group and intragastric administration group were 0, 5 min, 15 min, 30 min, 1 h, 2 h, 4 h, 6 h, 8 h, and 24 h. The brain tissues were collected at 30 min, 2 h and 24 h after administration of compounds 12, 15 and 18, respectively. The brain tissues were collected 24 hours after administration of compounds 2 and 5, rinsed with cold physiological saline to remove the residual blood on the surface, drained out and then homogenized. Before analysis and detection, all samples were stored at −80° C. The samples were analyzed quantitatively by LC-MS/MS.

[4] = Pharmacokinetic test in rats; assay type: in vivo, SD rats; conditions: for pharmacokinetic characteristics in rats: conclusion in words; for AUC(0-t) / clearance / Vd / bioavailability / Kp at 24 h: male, SD, rat, rats; for AUC(0-t) / clearance / Vd / bioavailability: plasma; for Vd: read-out: Vdss; for Kp at 24 h: brain/plasma, intravenous, 2.5 mg/kg, 24 h after administration, read-out: Brain/Plasma Ratio (24 h)
Procedure: 3.1 Experimental animal: male SD rats, about 220 g, 6-8 weeks old, 6 rats/compound, purchased from Chengdu Ddossy Experimental Animals Co., Ltd.
3.2 Experimental design: on the day of the experiment, 30 SD rats were randomly grouped according to their body weights. The animals were fasted with water available for 12 to 14 h one day before the administration and were fed 4 h after the administration.
as §1, with “administration, 0.15 ml of blood” for “administration, 0.06 mL ofblood”, “8 h” for “8 h,”, “collected” for “collected at 30 min, 2 h and 24 h after administration of compounds 12, 15 and 18, respectively. The brain tissues were collected”, “after administration,” for “after administration of compounds 2 and 5,”

[5] = Pharmacokinetic test in monkeys; assay type: in vivo, cynomolgus monkeys
Procedure: 6.1 Experimental animal: male cynomolgus monkeys, 3-5 kg, 3-6 years old, 4 monkeys/compound, purchased from Suzhou Xishan Biotechnology Inc.
6.2 Test method: On the day of the experiment, 8 monkeys were randomly grouped according to their body weights. The animals were fasted with water available for 14 to 18 h one day before the administration, and were fed 4 h after the administration.
Before and after the administration, 1.0 mL of blood was taken from the limb veins and placed in an EDTAK2 centrifuge tube. The blood was centrifuged at 5000 rpm and 4° C. for 10 min to collect plasma. The blood collection time points for the intravenous administration group were 0, 5 min, 15 min, 30 min, 1 h, 2 h, 4 h, 6 h, 8 h, 10 h, 12 h, 24 h and 48 h. Before analysis and detection, all samples were stored at −80° C. The samples were analyzed quantitatively by LC-MS/MS.

[6] = grades, read-out: PARP-1 enzyme activity IC50
[7] = Homo sapiens, MDA-MB-436, 168 h
[8] = Homo sapiens, 10 μM, MDA-MB-436 cells
[9] = male, cynomolgus monkey, iv, monkeys, i.v. (1 mg/kg), plasma

Compound | IC50 [2, 6] | IC50 [1, 7] | pharmacokinetic characteristics in mice [3] | AUC(0-t) ([3]; iv, i.v. 2.5 mg/kg) | clearance ([3]; iv, i.v. 2.5 mg/kg) | Vd ([3]; iv, i.v. 2.5 mg/kg) | bioavailability ([3]; po, i.g. 10 mg/kg) | AUC(0-t) ([3]; po, i.g. 10 mg/kg) | pharmacokinetic characteristics in rats [4] | AUC(0-t) ([4]; iv, i.v. 2.5 mg/kg) | clearance ([4]; iv, i.v. 2.5 mg/kg) | Vd ([4]; iv, i.v. 2.5 mg/kg) | bioavailability ([4]; po, i.g. 10 mg/kg) | AUC(0-t) ([4]; po, i.g. 10 mg/kg) | inhibition at 10 µM [1, 8] | other results
1-(difluoromethyl)-N-(5-(4-((2-(difluoroethyl(-5-fluoro-3-oxo-3,4-dihydroquinoxalin-6-yl)methyl)piperazin-1-yl)-6-fluoropyridin-2-yl)-1H-pyrazole-4-carboxamide [Compound 17] | < 5 nM |  |  |  |  |  |  |  |  |  |  |  |  |  |  | Max inh. % 10 μM ([1]; 10 μM, MDA-MB-436 cells): 72.33%; IC50 [1]: 19.4 nM
Cc1nc2ccc(CN3CCN(c4ccc(C(=O)N[C@H]5C[C@H]5F)nc4F)CC3)c(F)c2[nH]c1=O [Compound 5, 6-fluoro-5-(4-((5-fluoro-2-methyl-3-oxo-3,4-dihydroquinoxalin-6-yl)methyl)piperazin-1-yl)-N-((1S,2R)-2-fluorocyclopropyl)picolinamide] | < 5 nM | 28 nM | good pharmacokinetic characteristics | 2750 ± 212 ng·h/mL | 15.2 ± 1.1 mL/min/kg | 2.85 ± 0.23 L/kg | ≥ 98% | 12700 ± 817 ng·h/mL |  |  |  |  |  |  | 79.8% | Kp at 24 h [3]: 0.911
Cn1cc(C(=O)Nc2ccc(N3CCN(Cc4ccc5nc(C(F)F)c(=O)[nH]c5c4F)CC3)c(F)n2)c(F)n1 [Compound 18, N-(5-(4-((2-(difluoromethyl)-5-fluoro-3-oxo-3,4-dihydroquinoxalin-6-yl)methyl)piperazin-1-yl)-6-fluoropyridin-2-yl)-3-fluoro-1-methyl-1H-pyrazole-4-carboxamide] | < 5 nM |  | good pharmacokinetic characteristics | 8150 ± 811 ng·h/mL | 5.14 ± 0.53 mL/min/kg | 0.582 ± 0.029 L/kg | ≥ 98% | 32300 ng·h/mL | good pharmacokinetic characteristics | 22000 ± 838 ng·h/mL | 1.9 ± 0.071 mL/min/kg | 0.294 ± 0.011 L/kg | ≥ 98% | 87600 ± 11700 ng·h/mL |  | 
Cn1cc(C(=O)Nc2ccc(N3CCN(Cc4ccc5nc(C(F)F)c(=O)[nH]c5c4F)CC3)c(F)n2)cn1 [Compound 14, N-(5-(4-((2-(difluoromethyl)-5-fluoro-3-oxo-3,4-dihydroquinoxalin-6-yl)methyl)piperazin-1-yl)-6-fluoropyridin-2-yl)-1-methyl-1H-pyrazole-4-carboxamide] | < 5 nM | 24.3 nM |  |  |  |  |  |  | good pharmacokinetic characteristics | 48700 ± 4800 ng·h/mL | 0.859 ± 0.09 mL/min/kg | 0.148 ± 0.01 L/kg | 70.9 ± 3.4% | 138000 ± 6650 ng·h/mL | 73.2% | pharmacokinetic characteristics in monkeys ([5]; conclusion in words): good pharmacokinetic characteristics; AUC(0-t) [5, 9]: 47100 ± 6260 ng·h/mL; clearance [5, 9]: 0.348 ± 0.057 mL/min/kg; Vd ([5]; male, cynomolgus monkey, iv, monkeys, i.v. (1 mg/kg), plasma, read-out: Vdss): 0.151 ± 0.022 L/kg; bioavailability ([5]; male, cynomolgus monkey, plasma, po, monkeys, i.g. (3 mg/kg)): 56.8 ± 4.9%; AUC(0-t) ([5]; male, cynomolgus monkey, po, monkeys, i.g. (3 mg/kg), plasma): 80100 ± 6960 ng·h/mL

More lines, in order of falling IC50 [1, 7], values ahead:

IC50 [2, 6] | IC50 [1, 7] | pharmacokinetic characteristics in mice [3] | AUC(0-t) ([3]; iv, i.v. 2.5 mg/kg) | clearance ([3]; iv, i.v. 2.5 mg/kg) | Vd ([3]; iv, i.v. 2.5 mg/kg) | bioavailability ([3]; po, i.g. 10 mg/kg) | AUC(0-t) ([3]; po, i.g. 10 mg/kg) | pharmacokinetic characteristics in rats [4] | AUC(0-t) ([4]; iv, i.v. 2.5 mg/kg) | clearance ([4]; iv, i.v. 2.5 mg/kg) | Vd ([4]; iv, i.v. 2.5 mg/kg) | bioavailability ([4]; po, i.g. 10 mg/kg) | AUC(0-t) ([4]; po, i.g. 10 mg/kg) | Compound | inhibition at 10 µM [1, 8] | other results
< 5 nM | 32.8 nM |  |  |  |  |  |  | good pharmacokinetic characteristics | 7390 ± 663 ng·h/mL | 5.36 ± 0.068 mL/min/kg | 1.13 ± 0.071 L/kg | ≥ 98% | 33400 ± 2670 ng·h/mL | Cc1nc2ccc(CN3CCN(c4ccc(C(=O)N[C@@H]5C[C@@H]5F)nc4F)CC3)c(F)c2[nH]c1=O [Compound 4, 6-fluoro-5-(4-((5-fluoro-2-methyl-3-oxo-3,4-dihydroquinoxalin-6-yl)methyl)piperazin-1-yl)-N-((1R,2S)-2-fluorocyclopropyl)picolinamide] | 80.1% | Kp at 24 h [4]: 0.315
 | 6.8 nM | good pharmacokinetic characteristics | 16300 ± 1740 ng·h/mL | 2.57 ± 0.29 mL/min/kg | 0.342 ± 0.04 L/kg | ≥ 98% | 67200 ng·h/mL | good pharmacokinetic characteristics | 25800 ± 2870 ng·h/mL | 1.63 ± 0.18 mL/min/kg | 0.192 ± 0.022 L/kg | 87.2 ± 14% | 89800 ± 14000 ng·h/mL | Cn1cc(NC(=O)c2ccc(N3CCN(Cc4ccc5nc(C(F)F)c(=O)[nH]c5c4F)CC3)c(F)n2)cn1 [Compound 15] | 74.2% | Kp at 24 h [4]: 0.916
< 5 nM | 3.5 nM | good pharmacokinetic characteristics | 1870 ± 154 ng·h/mL | 21.6 ± 1.3 mL/min/kg | 2.09 ± 0.52 L/kg | 97.4% | 7270 ± 793 ng·h/mL |  |  |  |  |  |  | Cc1nc2ccc(CN3CCN(c4ccc(C(=O)Nc5cnn(C)c5)nc4F)CC3)c(F)c2[nH]c1=O [Compound 2, 6-fluoro-5-(4-((5-fluoro-2-methyl-3-oxo-3,4-dihydroquinoxalin-6-yl)methyl)piperazin-1-yl)-N-(1-methyl-1H-pyrazol-4-yl)picolinamide] | 86% | IC50 ([2]; read-out: IC50 value on PARP-1): 0.79 nM; Kp at 24 h [3]: 5.23
 | 1.5 nM |  |  |  |  |  |  |  |  |  |  |  |  | Cc1nc2ccc(CN3CC=C(c4ccc(C(=O)Nc5cnn(C)c5)nc4F)CC3)c(F)c2[nH]c1=O [Compound 9, 2-fluoro-1′-((5-fluoro-2-methyl-3-oxo-3,4-dihydroquinoxalin-6-yl)methyl)-N-(1-methyl-1H-pyrazol-4-yl)-1′,2′,3′,6′-tetrahydro-[3,4′-bipyridine]-6-carboxamide] | 84.4% | 
